pIC50: −log10 of the molar value. Entries after “also recorded” stand apart in the source; their conditions may differ.
Tests used:
Type in all cases: biochemical
[1] = target: T1, HNMT (Homo sapiens, UniProt P50135); assay: MTase-Glo HNMT inhibition assay; details: for HNMT activity and specificity in SAR analysis: SAR expansion of diazepine chemotype; for potency loss: relative to the best analogs with pyridine nitrogen; for activity in HTS and follow-up: MTase-Glo, top dose 40 μM
[2] = target: T2, GNMT (Homo sapiens, UniProt Q14749); assay: MTase-Glo GNMT inhibition assay; details: for activity in HTS and follow-up: MTase-Glo, top dose 40 μM
T2 sequence (Q14749 1-295): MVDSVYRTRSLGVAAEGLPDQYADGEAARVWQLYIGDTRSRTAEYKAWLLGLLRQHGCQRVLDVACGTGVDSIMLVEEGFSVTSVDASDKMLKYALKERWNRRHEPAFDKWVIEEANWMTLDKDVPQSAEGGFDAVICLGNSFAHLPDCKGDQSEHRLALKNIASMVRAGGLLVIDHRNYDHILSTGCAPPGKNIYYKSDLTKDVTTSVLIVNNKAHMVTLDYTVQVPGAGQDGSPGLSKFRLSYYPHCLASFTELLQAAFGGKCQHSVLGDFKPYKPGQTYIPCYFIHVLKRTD

[3] = target: T3, PNMT (Homo sapiens, UniProt P11086); assay: MTase-Glo PNMT inhibition assay; details: for activity in HTS and follow-up: MTase-Glo, top dose 40 μM
T3 sequence (P11086 1-282): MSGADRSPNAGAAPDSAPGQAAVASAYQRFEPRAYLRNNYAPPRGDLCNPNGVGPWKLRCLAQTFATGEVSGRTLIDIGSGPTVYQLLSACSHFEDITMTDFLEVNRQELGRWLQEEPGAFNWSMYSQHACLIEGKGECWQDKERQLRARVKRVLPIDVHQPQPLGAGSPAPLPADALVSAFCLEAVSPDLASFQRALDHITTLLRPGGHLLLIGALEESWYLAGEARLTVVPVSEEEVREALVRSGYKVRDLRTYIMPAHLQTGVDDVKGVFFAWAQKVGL

[4] = target: T4, COMT (Homo sapiens, UniProt P21964); assay: MTase-Glo COMT inhibition assay; details: for activity in HTS and follow-up: MTase-Glo, top dose 40 μM
T4 sequence (P21964 1-271): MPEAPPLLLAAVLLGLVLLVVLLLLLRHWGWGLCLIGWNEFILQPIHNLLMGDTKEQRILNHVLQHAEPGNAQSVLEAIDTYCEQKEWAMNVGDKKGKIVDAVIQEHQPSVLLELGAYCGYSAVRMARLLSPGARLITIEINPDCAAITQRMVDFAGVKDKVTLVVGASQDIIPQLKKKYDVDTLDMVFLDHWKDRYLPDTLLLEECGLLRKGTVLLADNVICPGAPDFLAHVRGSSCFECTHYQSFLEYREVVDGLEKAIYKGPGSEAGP

[5] = target: T5, NNMT (Homo sapiens, UniProt P40261); assay: MTase-Glo NNMT inhibition assay; details: for activity in HTS and follow-up: MTase-Glo, top dose 40 μM
T5 sequence (P40261 1-264): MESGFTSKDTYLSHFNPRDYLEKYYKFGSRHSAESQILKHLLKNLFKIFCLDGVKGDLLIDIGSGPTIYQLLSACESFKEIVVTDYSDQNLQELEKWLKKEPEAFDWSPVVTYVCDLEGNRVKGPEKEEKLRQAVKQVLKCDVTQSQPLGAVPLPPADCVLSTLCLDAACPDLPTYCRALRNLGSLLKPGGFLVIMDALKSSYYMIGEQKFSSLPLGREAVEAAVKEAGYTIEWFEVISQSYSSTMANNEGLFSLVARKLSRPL

[6] = target: GAMT (Homo sapiens, UniProt Q14353); assay: MTase-Glo GAMT inhibition assay; details: for activity in HTS and follow-up: MTase-Glo, top dose 40 μM
[7] = tested on: MTase-Glo coupled reporter assay; assay: MTase-Glo counter-assay; details: 1 μM SAH in place of enzyme; for result in counter-assay replicates: two counter-assay replicates
[8] = target: T1, HNMT; assay: LC-MS orthogonal assay, HNMT; details: for response in MS assay: LC-MS dose response
[9] = target: T4, COMT; assay: LC-MS orthogonal assay, COMT
[10] = target: T5, NNMT; assay: LC-MS orthogonal assay, NNMT
[11] = target: T3, PNMT; assay: LC-MS orthogonal assay, PNMT
[12] = target: T2, GNMT; assay: LC-MS orthogonal assay, GNMT
[13] = target: T2, GNMT; assay: KM determination by method of initial rates, GNMT; details: read-out: KM, substrate, SAM 100 μM, MTase-Glo readout
[14] = 11-point dose response, up to 50 μM

T1 sequence (P50135 whole entry): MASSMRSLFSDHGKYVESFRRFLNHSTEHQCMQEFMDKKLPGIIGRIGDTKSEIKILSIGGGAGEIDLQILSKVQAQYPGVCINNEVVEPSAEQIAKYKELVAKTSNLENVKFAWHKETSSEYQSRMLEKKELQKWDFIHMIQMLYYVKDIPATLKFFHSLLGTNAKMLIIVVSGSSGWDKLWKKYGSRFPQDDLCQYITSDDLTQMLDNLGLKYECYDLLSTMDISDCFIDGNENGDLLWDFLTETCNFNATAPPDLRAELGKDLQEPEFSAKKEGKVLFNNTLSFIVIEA

c1cncc(Nc2cc3c(cn2)CN(Cc2c[nH]c4ccccc24)CCN3)c1 [NCGC00411220]
HNMT activity and specificity in SAR analysis ([1]; 11-point dose response): reduced specificity

Oc1ccccc1CN1CCNc2cc(Nc3ccccc3)ncc2C1 [NCGC00411199]
potency loss [1]: at least 10 fold

COc1ccc(C(=O)Nc2cnn(-c3ncncc3N3CCC(C)CC3)c2)cc1 [NCGC00519772]
activity in HTS and follow-up [1]: showed activity against all of the SMMTases tested | activity in HTS and follow-up [2]: showed activity against all of the SMMTases tested | activity in HTS and follow-up [3]: showed activity against all of the SMMTases tested | activity in HTS and follow-up [4]: showed activity against all of the SMMTases tested | activity in HTS and follow-up [5]: showed activity against all of the SMMTases tested | activity in HTS and follow-up [6]: showed activity against all of the SMMTases tested | result in counter-assay replicates [7]: conflicting results | response in MS assay [8]: did not inhibit any SMMTase | response in MS assay [9]: did not inhibit any SMMTase | response in MS assay [10]: did not inhibit any SMMTase | response in MS assay [11]: did not inhibit any SMMTase | response in MS assay [12]: did not inhibit any SMMTase

Nc1ncnc2c1ncn2[C@@H]1O[C@H](C[C@@H](N)CC[C@H](N)C(=O)O)[C@@H](O)[C@H]1O [sinefungin, reference compound]
inhibition by positive control [1, 14]: inhibitable | inhibition by positive control [2, 14]: All MTases except GNMT were inhibitable | inhibition by positive control [3, 14]: inhibitable | inhibition by positive control [4, 14]: inhibitable | inhibition by positive control [5, 14]: inhibitable | inhibition by positive control [6, 14]: inhibitable | inhibition of counter-assay by positive control [7]: not inhibited

c1cncc(Nc2cc3c(cn2)CN(CC2CCOC2)CCN3)c1 (centres unmarked) [NCGC00411147]
HNMT activity and specificity in SAR analysis ([1]; 11-point dose response): potency loss

NCC(=O)O [Glycine]
Km [13]: > 500 µM

c1ccc(Nc2cc3c(cn2)CN(Cc2c[nH]c4ccccc24)CCN3)cc1 [NCGC00411050]
potency loss [1]: at least 10 fold

Cc1cc(-c2cc3c(cn2)CN(Cc2cccs2)CCN3)ccn1 [NCGC00411196]
potency loss [1]: at least 10 fold

Cc1ccc(C(=O)Nc2cnn(-c3ncncc3N3CCC(C)CC3)c2)s1 [NCGC00519779]
activity in HTS and follow-up [1]: showed activity against all of the SMMTases tested | activity in HTS and follow-up [2]: showed activity against all of the SMMTases tested | activity in HTS and follow-up [3]: showed activity against all of the SMMTases tested | activity in HTS and follow-up [4]: showed activity against all of the SMMTases tested | activity in HTS and follow-up [5]: showed activity against all of the SMMTases tested | activity in HTS and follow-up [6]: showed activity against all of the SMMTases tested | result in counter-assay replicates [7]: conflicting results | response in MS assay [8]: did not inhibit any SMMTase | response in MS assay [9]: did not inhibit any SMMTase | response in MS assay [10]: did not inhibit any SMMTase | response in MS assay [11]: did not inhibit any SMMTase | response in MS assay [12]: did not inhibit any SMMTase

Cn1cc(CN2CCNc3cc(Nc4cccnc4)ncc3C2)cn1 [NCGC00411154]
HNMT activity and specificity in SAR analysis ([1]; 11-point dose response): reduce activity

Fc1ccccc1CN1CCNc2cc(Nc3cccnc3)ncc2C1 [NCGC00411168]
HNMT activity and specificity in SAR analysis ([1]; 11-point dose response): showed best activity

c1cncc(Nc2cc3c(cn2)CN(Cc2ccsc2)CCN3)c1 [NCGC00411044]
HNMT activity and specificity in SAR analysis ([1]; 11-point dose response): most active HNMT-selective compounds; also recorded: showed best activity | pIC50 ([1]; read-out: IC50, MTase Glo assay): 5.61 | pIC50 ([8]; read-out: IC50, MS assay, LC-MS readout of SAH, n=3): 6.17 | response in MS assay [9]: No response | response in MS assay [10]: No response | response in MS assay [11]: No response | response in MS assay [12]: No response

c1ccc(Nc2cc3c(cn2)CN(Cc2cc[nH]n2)CCN3)cc1 [NCGC00411115]
potency loss [1]: at least 10 fold

Reference: article PMC10983791 (ACS chemical biology, 2023)
